Source: article PMC7170481, “Inhibition of Ammonia Monooxygenase from Ammonia-Oxidizing Archaea by Linear and Aromatic Alkynes” (Applied and Environmental Microbiology, 2020)

Experiments:
Experiment in all cases: inhibition of NH3-dependent nitrite production by intact cells
Assay type in all cases: cell-based
[1] = target: T1, AMO from Nitrosomonas europaea (Nitrosomonas europaea, UniProt Q04507+Q04508+Q82T63); details: 1 mM NH4+, 50 mM sodium phosphate pH 7.7, 2 mM MgCl2, 30°C, 30 min preincubation
T1 construct: gene amoA1; native membrane enzyme complex in intact cells (not purified); genome carries duplicate amo operons
T1 sequence (Q04507 2-276): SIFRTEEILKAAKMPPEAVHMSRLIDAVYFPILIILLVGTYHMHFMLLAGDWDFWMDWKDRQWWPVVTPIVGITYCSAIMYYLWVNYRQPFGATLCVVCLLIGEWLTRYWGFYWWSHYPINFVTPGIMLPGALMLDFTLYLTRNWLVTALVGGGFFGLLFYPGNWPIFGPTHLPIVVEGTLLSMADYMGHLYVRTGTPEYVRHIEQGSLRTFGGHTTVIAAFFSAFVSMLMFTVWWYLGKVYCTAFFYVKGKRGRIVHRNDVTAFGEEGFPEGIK
T1 sequence (Q04508 26-420): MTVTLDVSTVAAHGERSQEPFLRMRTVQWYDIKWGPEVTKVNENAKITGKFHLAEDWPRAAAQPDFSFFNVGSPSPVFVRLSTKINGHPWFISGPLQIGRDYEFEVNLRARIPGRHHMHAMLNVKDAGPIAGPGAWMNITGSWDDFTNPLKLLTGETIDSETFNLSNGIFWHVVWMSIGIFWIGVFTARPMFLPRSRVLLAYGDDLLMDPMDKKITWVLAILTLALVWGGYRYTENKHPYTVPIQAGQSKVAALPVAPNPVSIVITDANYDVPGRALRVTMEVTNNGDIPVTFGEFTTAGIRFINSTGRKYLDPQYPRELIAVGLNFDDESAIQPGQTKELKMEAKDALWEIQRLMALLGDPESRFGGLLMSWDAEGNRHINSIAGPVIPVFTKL
T1 sequence (Q82T63 1-271): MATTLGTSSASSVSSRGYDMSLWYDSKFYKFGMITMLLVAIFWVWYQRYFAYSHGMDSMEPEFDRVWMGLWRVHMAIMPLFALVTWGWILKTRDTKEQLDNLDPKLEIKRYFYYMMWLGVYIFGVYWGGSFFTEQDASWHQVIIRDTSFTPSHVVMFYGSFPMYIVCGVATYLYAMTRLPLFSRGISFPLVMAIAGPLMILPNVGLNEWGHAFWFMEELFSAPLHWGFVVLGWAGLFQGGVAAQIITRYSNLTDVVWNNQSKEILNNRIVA

[2] = target: T2, AMO from "Ca. Nitrosotalea sinensis" Nd2 (Nitrosotalea sinensis, UniProt A0A2H1EFS5+A0A2H1EG39+A0A2H1EG64)
T2 construct: gene amoA; native membrane enzyme complex in intact cells (not purified)
T2 sequence (A0A2H1EG64 24-239 limits assumed): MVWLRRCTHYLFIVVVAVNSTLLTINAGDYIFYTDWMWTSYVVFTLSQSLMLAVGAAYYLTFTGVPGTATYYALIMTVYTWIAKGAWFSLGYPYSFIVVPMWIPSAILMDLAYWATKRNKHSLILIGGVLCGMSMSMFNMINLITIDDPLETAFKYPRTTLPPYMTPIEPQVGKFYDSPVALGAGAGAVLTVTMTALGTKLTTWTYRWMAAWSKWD
T2 sequence (A0A2H1EFS5 1-188): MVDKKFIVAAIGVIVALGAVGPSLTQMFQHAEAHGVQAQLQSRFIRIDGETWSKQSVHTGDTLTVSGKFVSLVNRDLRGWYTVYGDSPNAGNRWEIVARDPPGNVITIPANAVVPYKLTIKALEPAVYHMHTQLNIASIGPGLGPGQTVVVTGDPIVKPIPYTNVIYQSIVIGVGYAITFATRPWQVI
T2 sequence (A0A2H1EG39 1-187): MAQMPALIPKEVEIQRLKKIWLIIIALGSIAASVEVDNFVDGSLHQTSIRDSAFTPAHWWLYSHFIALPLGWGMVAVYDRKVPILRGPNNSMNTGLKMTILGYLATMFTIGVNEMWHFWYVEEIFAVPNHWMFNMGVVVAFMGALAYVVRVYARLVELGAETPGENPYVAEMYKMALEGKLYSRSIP
Text: inhibition of NH3-dependent nitrite production by intact cells on AMO from "Ca.

[3] = target: T3, AMO from "Ca. Nitrosocosmicus franklandus" C13 (Candidatus Nitrosocosmicus franklandianus, UniProt A0A484I8C2+A0A484I9U7+A0A484IBG0)
T3 construct: gene amoA; native membrane enzyme complex in intact cells (not purified); copper-dependent multimeric
T3 sequence (A0A484I9U7 1-216): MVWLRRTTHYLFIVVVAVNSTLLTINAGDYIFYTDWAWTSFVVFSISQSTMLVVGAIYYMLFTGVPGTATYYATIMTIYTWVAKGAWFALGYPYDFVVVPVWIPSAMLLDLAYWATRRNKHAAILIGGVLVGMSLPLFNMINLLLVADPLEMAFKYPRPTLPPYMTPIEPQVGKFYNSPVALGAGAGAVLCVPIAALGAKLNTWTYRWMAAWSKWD
T3 sequence (A0A484I8C2 1-192): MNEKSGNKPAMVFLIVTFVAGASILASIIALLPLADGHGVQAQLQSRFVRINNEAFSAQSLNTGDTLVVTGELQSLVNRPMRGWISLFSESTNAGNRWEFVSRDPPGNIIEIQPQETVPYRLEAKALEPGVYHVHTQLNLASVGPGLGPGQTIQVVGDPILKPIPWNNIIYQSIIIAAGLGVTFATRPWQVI
T3 sequence (A0A484IBG0 1-187): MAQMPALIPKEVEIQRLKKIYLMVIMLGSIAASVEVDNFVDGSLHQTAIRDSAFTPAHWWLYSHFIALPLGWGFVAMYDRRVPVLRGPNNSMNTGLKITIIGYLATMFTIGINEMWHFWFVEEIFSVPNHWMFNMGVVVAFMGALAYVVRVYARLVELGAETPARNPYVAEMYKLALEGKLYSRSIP
Text: inhibition of NH3-dependent nitrite production by intact cells on AMO from "Ca. Nitrosocosmicus franklandus" C13 | partial inhibition of NH3 oxidation by “Ca.

[4] = target: T1, AMO from Nitrosomonas europaea
[5] = system: T4, pMMO from Methylococcus capsulatus (Bath); details: 20 mM NH4+, 20 mM formate as reductant, 10 mM PIPES pH 7, 37°C, 30 min preincubation
T4 construct: gene pmoB; sMMO excluded by naphthalene assay

Row | SMILES | % inhibition at 10 μM [1] | % inhibition at 10 μM [5] | other results
1 | C#CCCCCCC [C8, 1-octyne] | AMO activity was completely inhibited by C6 to C8 1-alkynes |  | 
2 | C#CCCC [C5, 1-pentyne] |  | > 20% | inhibition at 10 µM [2]: 70 ± 1%; inhibition at 10 µM [3]: 14 ± 1%; inhibition at 10 µM [4]: 98 ± 1%
3 | C#CCCCCC [C7, 1-heptyne] | AMO activity was completely inhibited by C6 to C8 1-alkynes | ~ 10% | 
4 | C#Cc1ccccc1 [PA, phenylacetylene] |  |  | inhibition at 5 µM ([3]; read-out: % inhibition at 5 μM): 55.4 ± 1.4%; inhibition at 0.5 µM ([4]; read-out: % inhibition at 0.5 μM): 52.5 ± 1.7%
5 | C#CCCCC [C6, 1-hexyne] | AMO activity was completely inhibited by C6 to C8 1-alkynes | ~ 10% | 
